In ChEMBL document CHEMBL5344408, “Pyrimidine thioethers: A novel class of antidepressant agents, endowed with anxiolytic, performance enhancing and nootropic activity” (Eur J Med Chem, 2023):
Where “and” joins values, the source holds several entries; their conditions need not be identical. Equal entries are not always repeated. Calls of active or inactive are those of the source. The calls are words filed in the database; no cut-off is given here.

Columns and labels:
[1] = tested on: Mus musculus; assay: Anxiolytic activity in Albino mouse assessed as rapid open arm entry at […], po administered through intragastric tube measured after 40 mins by elevated plus maze test; format: functional, organism-based
[2] = tested on: Mus musculus; assay: Effect on memory formation in Albino mouse assessed as memory of negative experience by measuring dark room entry at […], po administered through intragastric tube measured after 7 days by conditioned avoidance test; format: functional, organism-based; details: time 7.0 day
[3] = tested on: Mus musculus; assay: Anxiolytic activity in Albino mouse assessed as increase in number of central zone crossing at […], po administered through intragastric tube measured after 40 mins by elevated plus maze test; format: functional, organism-based
[4] = tested on: Mus musculus; assay: Anxiolytic activity in Albino mouse assessed as increase in motor activity by measuring increase in number of square crossing at […], po administered through intragastric tube measured after 40 mins by open field test; format: functional, organism-based
[5] = tested on: Mus musculus; assay: Anxiolytic activity in Albino mouse assessed as increase in number of open arm entries at […], po administered through intragastric tube measured after 40 mins by elevated plus maze test; format: functional, organism-based
[6] = tested on: Mus musculus; assay: Nootropic activity in Albino mouse assessed as quick escape from restricting factor in aversive environment at […], po administered through intragastric tube measured after 7 days by conditioned avoidance test; format: functional, organism-based; details: time 7.0 day
[7] = tested on: Mus musculus; assay: Anxiolytic activity in Albino mouse assessed as increase in time spent in open arm entries at […], po administered through intragastric tube measured after 40 mins by elevated plus maze test; format: functional, organism-based
[8] = tested on: Mus musculus; assay: Antidepressant activity in Albino mouse with social depression assessed as increase in time of interaction with partner mouse at […], po administered through intragastric tube measured after 40 mins by social interaction test; format: functional, organism-based
[9] = tested on: Mus musculus; assay: Antidepressant activity in Albino mouse with social depression assessed as increase in interaction frequency with partner mouse at […], po administered through intragastric tube measured after 40 mins by social interaction test; format: functional, organism-based
[10] = Toxicity in po dosed female Albino mouse; format: organism-based; details: in vivo

| Structure (SMILES) | Activity [1] | Activity [2] | Activity [3] | Activity [4] | Activity [5] | Activity [6] | Activity [7] | Activity [8] | Activity [9] | LD50 ([10]; female, Albino, read-out: LD50) | LD50 ([10]; po) |
| --- | --- | --- | --- | --- | --- | --- | --- | --- | --- | --- | --- |
| CC(C)CCc1c(O)nc(SCCN2CCCC2)[nH]c1=O | inactive | inactive | – | – | – | – | – | – | – | – | – |
| CSCCc1c(O)nc(SCCN(C)C)[nH]c1=O | – | inactive | Active | inactive | Active | – | – | – | – | – | – |
| CCCC(C)c1c(O)nc(SCCN2CCCCC2)[nH]c1=O (stereo unspecified) | inactive | inactive | – | – | Active | – | – | – | – | – | – |
| CCN(CC)CCSc1nc(O)c(CCSC)c(=O)[nH]1 | inactive | inactive | – | Active | – | Active | – | – | – | – | – |
| CC(C)CCc1c(O)nc(SCCN(C)C)[nH]c1=O | – | inactive | – | – | – | inactive | – | – | – | – | – |
| CCCC(C)c1c(O)nc(SCCN(CC)CC)[nH]c1=O.Cl (stereo unspecified) | Active | inactive | Active | – | Active | inactive | Active | Active | Active | 1840 mg/kg and 5720 µmol/kg | – |
| CC(C)c1c(O)nc(SCCN(C)C)nc1O | Active | Active | Active | – | Active | inactive | Active | – | – | – | – |
| CC(C)c1c(O)nc(SCCN2CCCCC2)[nH]c1=O | Active | Active | Active | – | Active | – | Active | – | – | – | – |
| CCCC(C)c1c(O)nc(SCCN(C)C)[nH]c1=O (stereo unspecified) | Active | inactive | Active | Active | Active | Active | Active | – | – | – | – |
| CCCC(C)c1c(O)nc(SCCN2CCCC2)[nH]c1=O (stereo unspecified) | – | inactive | Active | inactive | Active | – | Active | – | – | – | – |
| CSCCc1c(O)nc(SCCN2CCCCC2)[nH]c1=O | – | inactive | Active | – | Active | inactive | – | – | – | – | – |
| CC(C)c1c(O)nc(SCCN2CCCC2)[nH]c1=O.Cl | – | inactive | – | Active | – | – | – | – | – | – | 544 mg kg-1 and 1563 umol/Kg |
| CSCCSc1nc(O)c(C(C)C)c(=O)[nH]1 | Active | Active | Active | Active | Active | inactive | – | – | – | – | – |
| CCN(CC)CCSc1nc(O)c(C(C)C)c(O)n1 | Active | Active | – | – | – | – | Active | – | – | – | – |
| CCN(CC)CCSc1nc(O)c(CCC(C)C)c(=O)[nH]1 | inactive | inactive | – | Active | – | – | – | – | – | – | – |
| CC(C)c1c(O)nc(N2CCSCC2)[nH]c1=O | Active | inactive | Active | – | Active | Active | Active | – | – | – | – |
| CC(C)CCc1c(O)nc(SCCN2CCCCC2)[nH]c1=O | inactive | inactive | – | – | – | Active | – | – | – | – | – |
| CSCCc1c(O)nc(SCCN2CCCC2)[nH]c1=O | Active | inactive | Active | inactive | Active | – | Active | – | – | – | – |
